Source: ChEMBL document CHEMBL4308841, “Synthesis, in vitro antiproliferative activity, and kinase inhibitory effects of pyrazole-containing diarylureas and diarylamides” (Eur J Med Chem, 2018)

What follows are molecules tested on Hs-578T (assay: Growth inhibition of human Hs578T cells assessed as cell growth at 10 uM incubated for 48 hrs by sulforhodamine B assay relative to control). Conditions: read-out: Activity.
Assay type: functional

Question: Which growth at 10 µM does the source give for `COc1cc(Cl)cc(-c2nn(-c3cccc(NC(=O)Nc4ccc(Cl)c(Cl)c4)c3)cc2-c2ccncc2)c1` here?
Answer: 28.5%

These molecules were tested on SNB-75 (assay: Growth inhibition of human SNB75 cells assessed as cell growth at 10 uM incubated for 48 hrs by sulforhodamine B assay relative to control). Conditions: SNB-75, 48 h, read-out: Activity.
Assay type: functional

Question: `COc1cc(Cl)cc(-c2nn(-c3cccc(NC(=O)Nc4ccc(Cl)c(Cl)c4)c3)cc2-c2ccncc2)c1` was tested. Which growth at 10 µM did it give?
Answer: 16.2%

Each molecule was assayed on SNB-19 (assay: Growth inhibition of human SNB19 cells assessed as cell growth at 10 uM incubated for 48 hrs by sulforhodamine B assay relative to control). Conditions: SNB-19, 48 h, read-out: Activity.
Assay type: functional

Question: For `COc1cc(Cl)cc(-c2nn(-c3cccc(NC(=O)Nc4ccc(Cl)c(Cl)c4)c3)cc2-c2ccncc2)c1`, which growth at 10 µM is on record?
Answer: 17.8%

The molecules below were run on T47D (assay: Growth inhibition of human T47D cells assessed as cell growth at 10 uM incubated for 48 hrs by sulforhodamine B assay relative to control). Conditions: read-out: Activity.
Assay type: functional

Question: With `COc1cc(Cl)cc(-c2nn(-c3cccc(NC(=O)Nc4ccc(Cl)c(Cl)c4)c3)cc2-c2ccncc2)c1` as the molecule, how does the growth at 10 µM read?
Answer: 18.6%

These molecules were tested on K562 (assay: Growth inhibition of human K562 cells assessed as cell growth at 10 uM incubated for 48 hrs by sulforhodamine B assay relative to control). Conditions: K562, 48 h, read-out: Activity.
Assay type: functional

Question: For `COc1cc(Cl)cc(-c2nn(-c3cccc(NC(=O)Nc4ccc(Cl)c(Cl)c4)c3)cc2-c2ccncc2)c1`, which growth at 10 µM is on record?
Answer: 10%

These molecules were tested on MDA-MB-231 (assay: Growth inhibition of human MDA-MB-231 cells assessed as cell growth at 10 uM incubated for 48 hrs by sulforhodamine B assay relative to control). Conditions: MDA-MB-231, 48 h, read-out: Activity.
Assay type: functional

Question: Which growth at 10 µM does the source give for `COc1cc(Cl)cc(-c2nn(-c3cccc(NC(=O)Nc4ccc(Cl)c(Cl)c4)c3)cc2-c2ccncc2)c1` here?
Answer: -21%

The molecules below were run on SW-620 (assay: Growth inhibition of human SW620 cells assessed as cell growth at 10 uM incubated for 48 hrs by sulforhodamine B assay relative to control). Conditions: SW-620, 48 h, read-out: Activity.
Assay type: functional

Question: `COc1cc(Cl)cc(-c2nn(-c3cccc(NC(=O)Nc4ccc(Cl)c(Cl)c4)c3)cc2-c2ccncc2)c1` was tested. Which growth at 10 µM did it give?
Answer: 13.3%

These molecules were tested on HL-60(TB) (assay: Growth inhibition of human HL-60(TB) cells assessed as cell growth at 10 uM incubated for 48 hrs by sulforhodamine B assay relative to control). Conditions: HL-60, 48 h, read-out: Activity.
Assay type: functional

Question: Which growth at 10 µM does the source give for `COc1cc(Cl)cc(-c2nn(-c3cccc(NC(=O)Nc4ccc(Cl)c(Cl)c4)c3)cc2-c2ccncc2)c1` here?
Answer: -5.12%

What follows are molecules tested on NCI-H23 (assay: Growth inhibition of human NCI-H23 cells assessed as cell growth at 10 uM incubated for 48 hrs by sulforhodamine B assay relative to control). Conditions: NCI-H23, 48 h, read-out: Activity.
Assay type: functional

Question: `COc1cc(Cl)cc(-c2nn(-c3cccc(NC(=O)Nc4ccc(Cl)c(Cl)c4)c3)cc2-c2ccncc2)c1` was tested. Which growth at 10 µM did it give?
Answer: 5.72%

The molecules below were run on COLO 205 (assay: Growth inhibition of human COLO205 cells assessed as cell growth at 10 uM incubated for 48 hrs by sulforhodamine B assay relative to control). Conditions: COLO 205, 48 h, read-out: Activity.
Assay type: functional

Question: How did the growth at 10 µM turn out when `COc1cc(Cl)cc(-c2nn(-c3cccc(NC(=O)Nc4ccc(Cl)c(Cl)c4)c3)cc2-c2ccncc2)c1` was run?
Answer: -70.3%

The molecules below were run on SF-295 (assay: Growth inhibition of human SF295 cells assessed as cell growth at 10 uM incubated for 48 hrs by sulforhodamine B assay relative to control). Conditions: SF-295, 48 h, read-out: Activity.
Assay type: functional

Question: With `COc1cc(Cl)cc(-c2nn(-c3cccc(NC(=O)Nc4ccc(Cl)c(Cl)c4)c3)cc2-c2ccncc2)c1` as the molecule, how does the growth at 10 µM read?
Answer: -2.42%

These molecules were tested on SF-268 (assay: Growth inhibition of human SF268 cells assessed as cell growth at 10 uM incubated for 48 hrs by sulforhodamine B assay relative to control). Conditions: SF-268, 48 h, read-out: Activity.
Assay type: functional

Question: `COc1cc(Cl)cc(-c2nn(-c3cccc(NC(=O)Nc4ccc(Cl)c(Cl)c4)c3)cc2-c2ccncc2)c1` was tested. Which growth at 10 µM did it give?
Answer: 25.3%

What follows are molecules tested on A549 (assay: Growth inhibition of human A549/ATCC cells assessed as cell growth at 10 uM incubated for 48 hrs by sulforhodamine B assay relative to control). Conditions: A549, 48 h, read-out: Activity.
Assay type: functional

Question: `COc1cc(Cl)cc(-c2nn(-c3cccc(NC(=O)Nc4ccc(Cl)c(Cl)c4)c3)cc2-c2ccncc2)c1` was tested. Which growth at 10 µM did it give?
Answer: 11.3%

These molecules were tested on OVCAR-5 (assay: Growth inhibition of human OVCAR5 cells assessed as cell growth at 10 uM incubated for 48 hrs by sulforhodamine B assay relative to control). Conditions: OVCAR-5, 48 h, read-out: Activity.
Assay type: functional

Question: How did the growth at 10 µM turn out when `COc1cc(Cl)cc(-c2nn(-c3cccc(NC(=O)Nc4ccc(Cl)c(Cl)c4)c3)cc2-c2ccncc2)c1` was run?
Answer: 37.8%

What follows are molecules tested on HCT-15 (assay: Growth inhibition of human HCT15 cells assessed as cell growth at 10 uM incubated for 48 hrs by sulforhodamine B assay relative to control). Conditions: HCT-15, 48 h, read-out: Activity.
Assay type: functional

Question: Which growth at 10 µM does the source give for `COc1cc(Cl)cc(-c2nn(-c3cccc(NC(=O)Nc4ccc(Cl)c(Cl)c4)c3)cc2-c2ccncc2)c1` here?
Answer: 13.9%

The molecules below were run on RPMI-8226 (assay: Growth inhibition of human RPMI8226 cells assessed as cell growth at 10 uM incubated for 48 hrs by sulforhodamine B assay relative to control). Conditions: RPMI-8226, 48 h, read-out: Activity.
Assay type: functional

Question: How did the growth at 10 µM turn out when `COc1cc(Cl)cc(-c2nn(-c3cccc(NC(=O)Nc4ccc(Cl)c(Cl)c4)c3)cc2-c2ccncc2)c1` was run?
Answer: -4.44%

The molecules below were run on M14 (assay: Growth inhibition of human M14 cells assessed as cell growth at 10 uM incubated for 48 hrs by sulforhodamine B assay relative to control). Conditions: M14, 48 h, read-out: Activity.
Assay type: functional

Question: How did the growth at 10 µM turn out when `COc1cc(Cl)cc(-c2nn(-c3cccc(NC(=O)Nc4ccc(Cl)c(Cl)c4)c3)cc2-c2ccncc2)c1` was run?
Answer: 18.7%

What follows are molecules tested on PC-3 (assay: Growth inhibition of human PC3 cells assessed as cell growth at 10 uM incubated for 48 hrs by sulforhodamine B assay relative to control). Conditions: PC-3, 48 h, read-out: Activity.
Assay type: functional

Question: With `COc1cc(Cl)cc(-c2nn(-c3cccc(NC(=O)Nc4ccc(Cl)c(Cl)c4)c3)cc2-c2ccncc2)c1` as the molecule, how does the growth at 10 µM read?
Answer: -5.03%

What follows are molecules tested on U-251 (assay: Growth inhibition of human U251 cells assessed as cell growth at 10 uM incubated for 48 hrs by sulforhodamine B assay relative to control). Conditions: U-251, 48 h, read-out: Activity.
Assay type: functional

Question: Which growth at 10 µM does the source give for `COc1cc(Cl)cc(-c2nn(-c3cccc(NC(=O)Nc4ccc(Cl)c(Cl)c4)c3)cc2-c2ccncc2)c1` here?
Answer: 3.01%

The molecules below were run on SF-539 (assay: Growth inhibition of human SF539 cells assessed as cell growth at 10 uM incubated for 48 hrs by sulforhodamine B assay relative to control). Conditions: SF-539, 48 h, read-out: Activity.
Assay type: functional

Question: For `COc1cc(Cl)cc(-c2nn(-c3cccc(NC(=O)Nc4ccc(Cl)c(Cl)c4)c3)cc2-c2ccncc2)c1`, which growth at 10 µM is on record?
Answer: 20.9%

What follows are molecules tested on OVCAR-4 (assay: Growth inhibition of human OVCAR4 cells assessed as cell growth at 10 uM incubated for 48 hrs by sulforhodamine B assay relative to control). Conditions: OVCAR-4, 48 h, read-out: Activity.
Assay type: functional

Question: `COc1cc(Cl)cc(-c2nn(-c3cccc(NC(=O)Nc4ccc(Cl)c(Cl)c4)c3)cc2-c2ccncc2)c1` was tested. Which growth at 10 µM did it give?
Answer: 13.3%

The molecules below were run on NCI-H322M (assay: Growth inhibition of human NCI-H322M cells assessed as cell growth at 10 uM incubated for 48 hrs by sulforhodamine B assay relative to control). Conditions: read-out: Activity.
Assay type: functional

Question: With `COc1cc(Cl)cc(-c2nn(-c3cccc(NC(=O)Nc4ccc(Cl)c(Cl)c4)c3)cc2-c2ccncc2)c1` as the molecule, how does the growth at 10 µM read?
Answer: 32.3%

What follows are molecules tested on SK-MEL-28 (assay: Growth inhibition of human SK-MEL-28 cells assessed as cell growth at 10 uM incubated for 48 hrs by sulforhodamine B assay relative to control). Conditions: SK-MEL-28, 48 h, read-out: Activity.
Assay type: functional

Question: Which growth at 10 µM does the source give for `COc1cc(Cl)cc(-c2nn(-c3cccc(NC(=O)Nc4ccc(Cl)c(Cl)c4)c3)cc2-c2ccncc2)c1` here?
Answer: 23.2%

What follows are molecules tested on SR (assay: Growth inhibition of human SR cells assessed as cell growth at 10 uM incubated for 48 hrs by sulforhodamine B assay relative to control). Conditions: read-out: Activity.
Assay type: functional

Question: With `COc1cc(Cl)cc(-c2nn(-c3cccc(NC(=O)Nc4ccc(Cl)c(Cl)c4)c3)cc2-c2ccncc2)c1` as the molecule, how does the growth at 10 µM read?
Answer: -18.4%

Each molecule was assayed on OVCAR-8 (assay: Growth inhibition of human OVCAR8 cells assessed as cell growth at 10 uM incubated for 48 hrs by sulforhodamine B assay relative to control). Conditions: OVCAR-8, 48 h, read-out: Activity.
Assay type: functional

Question: `COc1cc(Cl)cc(-c2nn(-c3cccc(NC(=O)Nc4ccc(Cl)c(Cl)c4)c3)cc2-c2ccncc2)c1` was tested. Which growth at 10 µM did it give?
Answer: 1.93%

These molecules were tested on A498 (assay: Growth inhibition of human A498 cells assessed as cell growth at 10 uM incubated for 48 hrs by sulforhodamine B assay relative to control). Conditions: A498, 48 h, read-out: Activity.
Assay type: functional

Question: With `COc1cc(Cl)cc(-c2nn(-c3cccc(NC(=O)Nc4ccc(Cl)c(Cl)c4)c3)cc2-c2ccncc2)c1` as the molecule, how does the growth at 10 µM read?
Answer: -9.54%

The molecules below were run on KM12 (assay: Growth inhibition of human KM12 cells assessed as cell growth at 10 uM incubated for 48 hrs by sulforhodamine B assay relative to control). Conditions: KM12, 48 h, read-out: Activity.
Assay type: functional

Question: `COc1cc(Cl)cc(-c2nn(-c3cccc(NC(=O)Nc4ccc(Cl)c(Cl)c4)c3)cc2-c2ccncc2)c1` was tested. Which growth at 10 µM did it give?
Answer: 14.3%

Each molecule was assayed on CCRF-CEM (assay: Growth inhibition of human CCRF-CEM cells assessed as cell growth at 10 uM incubated for 48 hrs by sulforhodamine B assay relative to control). Conditions: read-out: Activity.
Assay type: functional

Question: With `COc1cc(Cl)cc(-c2nn(-c3cccc(NC(=O)Nc4ccc(Cl)c(Cl)c4)c3)cc2-c2ccncc2)c1` as the molecule, how does the growth at 10 µM read?
Answer: 5.73%

Each molecule was assayed on HCC 2998 (assay: Growth inhibition of human HCC2998 cells assessed as cell growth at 10 uM incubated for 48 hrs by sulforhodamine B assay relative to control). Conditions: HCC 2998, 48 h, read-out: Activity.
Assay type: functional

Question: For `COc1cc(Cl)cc(-c2nn(-c3cccc(NC(=O)Nc4ccc(Cl)c(Cl)c4)c3)cc2-c2ccncc2)c1`, which growth at 10 µM is on record?
Answer: 26.7%

The molecules below were run on BT-549 (assay: Growth inhibition of human BT549 cells assessed as cell growth at 10 uM incubated for 48 hrs by sulforhodamine B assay relative to control). Conditions: BT-549, 48 h, read-out: Activity.
Assay type: functional

Question: `COc1cc(Cl)cc(-c2nn(-c3cccc(NC(=O)Nc4ccc(Cl)c(Cl)c4)c3)cc2-c2ccncc2)c1` was tested. Which growth at 10 µM did it give?
Answer: 29.4%

Each molecule was assayed on SK-MEL-5 (assay: Growth inhibition of human SK-MEL-5 cells assessed as cell growth at 10 uM incubated for 48 hrs by sulforhodamine B assay relative to control). Conditions: SK-MEL-5, 48 h, read-out: Activity.
Assay type: functional

Question: With `COc1cc(Cl)cc(-c2nn(-c3cccc(NC(=O)Nc4ccc(Cl)c(Cl)c4)c3)cc2-c2ccncc2)c1` as the molecule, how does the growth at 10 µM read?
Answer: 3.51%

The molecules below were run on MCF7 (assay: Growth inhibition of human MCF7 cells assessed as cell growth at 10 uM incubated for 48 hrs by sulforhodamine B assay relative to control). Conditions: MCF7, 48 h, read-out: Activity.
Assay type: functional

Question: How did the growth at 10 µM turn out when `COc1cc(Cl)cc(-c2nn(-c3cccc(NC(=O)Nc4ccc(Cl)c(Cl)c4)c3)cc2-c2ccncc2)c1` was run?
Answer: 4.66%

These molecules were tested on Malme-3M (assay: Growth inhibition of human MALME-3M cells assessed as cell growth at 10 uM incubated for 48 hrs by sulforhodamine B assay relative to control). Conditions: read-out: Activity.
Assay type: functional

Question: Which growth at 10 µM does the source give for `COc1cc(Cl)cc(-c2nn(-c3cccc(NC(=O)Nc4ccc(Cl)c(Cl)c4)c3)cc2-c2ccncc2)c1` here?
Answer: -19.8%
